{"source": "ChEMBL document CHEMBL1821608", "about": "“Fragment library screening reveals remarkable similarities between the G protein-coupled receptor histamine H₄ and the ion channel serotonin 5-HT₃A” (Bioorg Med Chem Lett, 2011)", "key": {"[1]": {"target": "T1, 5-hydroxytryptamine receptor 3A (Homo sapiens) (UniProt P46098)", "T1 sequence (whole entry)": "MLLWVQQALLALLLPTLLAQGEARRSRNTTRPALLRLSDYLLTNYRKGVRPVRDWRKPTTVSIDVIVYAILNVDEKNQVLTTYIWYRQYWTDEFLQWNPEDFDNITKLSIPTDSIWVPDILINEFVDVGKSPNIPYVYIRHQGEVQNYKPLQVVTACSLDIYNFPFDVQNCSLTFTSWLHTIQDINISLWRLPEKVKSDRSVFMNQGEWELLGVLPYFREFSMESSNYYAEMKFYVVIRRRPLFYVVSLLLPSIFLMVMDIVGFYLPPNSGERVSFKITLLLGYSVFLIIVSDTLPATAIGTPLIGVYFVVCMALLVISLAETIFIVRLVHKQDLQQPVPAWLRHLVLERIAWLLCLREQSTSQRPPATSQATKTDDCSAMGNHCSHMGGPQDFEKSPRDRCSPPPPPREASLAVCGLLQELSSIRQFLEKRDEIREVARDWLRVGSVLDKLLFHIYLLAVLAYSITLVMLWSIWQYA", "assay": "Displacement of [3H]granisetron from human 5-HT3AR expressed in HEK293 cells after 24 hrs by liquid scintillation counting", "format": "cell-based"}, "Histamine H4 receptor [2]": {"target": "T2, Histamine H4 receptor (Homo sapiens, UniProt Q9H3N8)", "T2 sequence (Q9H3N8 whole entry)": "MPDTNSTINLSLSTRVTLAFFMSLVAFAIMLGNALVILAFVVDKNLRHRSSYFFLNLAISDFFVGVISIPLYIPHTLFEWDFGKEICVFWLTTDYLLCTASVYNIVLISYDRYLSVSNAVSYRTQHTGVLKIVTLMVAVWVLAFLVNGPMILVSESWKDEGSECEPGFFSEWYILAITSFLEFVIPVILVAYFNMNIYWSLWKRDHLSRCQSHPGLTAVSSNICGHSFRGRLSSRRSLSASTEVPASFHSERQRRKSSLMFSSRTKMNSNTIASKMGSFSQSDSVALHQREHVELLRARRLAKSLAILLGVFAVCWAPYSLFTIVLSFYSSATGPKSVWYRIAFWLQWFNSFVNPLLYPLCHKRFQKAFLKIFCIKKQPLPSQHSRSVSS", "assay": "Displacement of [3H]histamine from human H4R receptor expressed in HEK293 cells at 10 uM after 1.5 hrs by liquid scintillation counting", "format": "cell-based"}, "[3]": {"target": "T1, 5-hydroxytryptamine receptor 3A (Homo sapiens)", "assay": "Inhibition of 5-HT3AR at 10 uM"}, "Histamine H4 receptor [4]": {"target": "T2, Histamine H4 receptor", "assay": "Binding affinity to H4R receptor"}}, "note": "Calls of active or inactive are those of the source. The calls are words filed in the database; no cut-off is given here.", "data": [{"smiles": "CN1CCN(c2cc(-c3ccccc3)ncn2)CC1", "values": [{"measurement": "pKi", "setting": "[1]", "value": "inactive"}]}, {"smiles": "N=C(N)NCCCc1ccccc1", "values": [{"measurement": "pKi", "setting": "Histamine H4 receptor [2]", "value": "inactive"}]}, {"smiles": "Clc1ccc(C2CCNC2)cc1", "note": "(stereo not drawn)", "values": [{"measurement": "pKi", "setting": "Histamine H4 receptor [2]", "value": "inactive"}]}, {"smiles": "Nc1nc2c(c(N3CCNCC3)n1)CCCc1ccccc1-2", "values": [{"measurement": "inhibition", "setting": "[3]", "value": 98, "unit": "%"}]}, {"smiles": "c1ccc(CNCCc2c[nH]cn2)cc1", "values": [{"measurement": "pKi", "setting": "[1]", "value": "inactive"}]}, {"smiles": "Nc1ccc2cc3ccccc3nc2c1", "values": [{"measurement": "pKi", "setting": "Histamine H4 receptor [2]", "value": "inactive"}]}, {"smiles": "Nc1nc2c(c(N3CCNCC3)n1)CCC1=C2[C@@H]2CCCC[C@@H]2O1", "values": [{"measurement": "Ki", "setting": "Histamine H4 receptor [4]", "value": 0.0794, "unit": "µM"}]}, {"smiles": "c1cncc(Cc2c[nH]cn2)c1", "values": [{"measurement": "pKi", "setting": "[1]", "value": "inactive"}]}]}
